According to patent publication US5945407A, “Methods and compositions using butyrate esters of threitol” (Vertex Pharmaceuticals, Incorporated, priority 1998, dated 1999):

Legend:
[1] = Oral bioavailability and sustenance of plasma concentrations of butyric acid in rats after oral gavage; format: in vivo, rats (Sprague Dawley); conditions: rat; for AUC: butyric acid in plasma, oral gavage, mean ± SD
Experimental: We evaluated oral bioavailability and sustenance of plasma concentrations of butyric acid in rats receiving tetrabutyrate esters of threitol and tributyrin by oral gavage.
This assay was carried out according to the protocol described in Daniel et al., Clinca Chimica Acta., 181, pp. 255-64 (1989); Planchon et al., J. Pharm. Sci., 82, pp. 1046-48 (1993); Pouillart et al., J. Pharm Sci., 81, pp. 241-44 (1992). Each compound was tested in five to six rats (Sprague Dawley; Harlan Labs, Inc.) weighing approximately 300 grams each. In that table, data are expressed as mean ± standard deviation (range) and were compared using the unpaired Student's t-test.

[2] = Pharmacokinetic variability of serum butyrate (standard deviation of a parameter such as Cmax or AUC divided by its mean); format: in vivo
Text: Pharmacokinetic variability is the measure of differences in the serum butyrate concentrations between different patients administered the same amount of butyrate esters of threitol. Pharmacokinetic variability is quantified by dividing the standard deviation for a given parameter, such as Cmax or AUC, by the mean value of that parameter, in a series of patients given dose the same dosage of butyrate ester of threitol.

[3] = leukemia patients; continuous infusions of sodium butyrate; cited from earlier work
[4] = system: tumor and leukemia in mice; conditions: cited from earlier work
[5] = system: Cultured Erythroleukemic Cells; conditions: in vitro; cited from earlier work
[6] = system: leukemia patients; conditions: by inducing cell differentiation; cited from earlier work
[7] = in vitro; conditions: cell culture
[8] = system: fetal hemoglobin; conditions: sickle cell anemia patients; cited from earlier work

Compound CCCC(=O)OC[C@H](OC(=O)CCC)[C@H](COC(=O)CCC)OC(=O)CCC [l-threitol tetrabutyrate ester] has an AUC ([1]; 2.4 gm/kg) of 1200 ± 400 µM·h.
In the case of CCCC(=O)OCC(COC(=O)CCC)OC(=O)CCC [tributyrin], the AUC ([1]; 3.0 gm/kg) is reported as 1590 ± 930 µM·h, the “oral bioavailability (to provide therapeutic plasma levels of butyric acid)” value ([1]; oral) is reported as “orally bioavailable” and the “variability of release of butyric acid in vivo” value ([1]; oral, tetrabutyrate esters of threitol vs tributyrin) is reported as “more variable”. The pharmacokinetic variability ([2]; standard deviation / mean of a parameter such as Cmax or AUC) was 70%.
Compound CCCC(=O)OC[C@@H](OC(=O)CCC)[C@@H](COC(=O)CCC)OC(=O)CCC [d-threitol tetrabutyrate ester] has an AUC ([1]; 2.8 gm/kg) of 900 ± 260 µM·h.
For CCCC(=O)[O-].[Na+] [sodium butyrate], the “plasma half-life of butyric acid” value [3] is listed as 6 min.
For CCCC(=O)O [arginine butyrate], the “anti-tumor and anti-leukemia effects” value [4] is given as “anti-tumor and anti-leukemia effects”.
For CCCC(=O)O [butyric acid], the cell differentiation [5] is given as “induces cell differentiation”, the “effect in leukemia patients” value [6] is given as “promising effects” and the MCC [7] is given as > 3 mM.
For NC(=O)NO [hydroxyurea], the fetal hemoglobin production [8] is given as “stimulates fetal hemoglobin production” and the sickling crisis [8] is given as “reduces sickling crisis”.
With CCCC(=O)OC[C@H](OC(=O)CCC)[C@@H](COC(=O)CCC)OC(=O)CCC [tetrabutyrate ester of mesothreitol] the pharmacokinetic variability ([2]; in vivo) was 35-40%.
